# Experimental data from PMC4447944 (The Journal of Biological Chemistry, 2015).
# pIC50: −log10 of the molar value.
# Tests used:
# hAKT3 = biological target: T1, hAKT3 (Homo sapiens, UniProt Q9Y243); assay: KINOMEscan; format: binding
# T1 construct: purchased DiscoverX
# hALK(C1156Y) = biological target: T2, hALK(C1156Y) (Homo sapiens, UniProt Q9UM73, C1156Y); assay: KINOMEscan; format: binding
# T2 construct: purchased DiscoverX
# hCLK2 = biological target: T3, hCLK2 (Homo sapiens, UniProt P49760); assay: KINOMEscan; format: binding
# T3 construct: purchased DiscoverX
# T3 sequence (P49760 whole entry): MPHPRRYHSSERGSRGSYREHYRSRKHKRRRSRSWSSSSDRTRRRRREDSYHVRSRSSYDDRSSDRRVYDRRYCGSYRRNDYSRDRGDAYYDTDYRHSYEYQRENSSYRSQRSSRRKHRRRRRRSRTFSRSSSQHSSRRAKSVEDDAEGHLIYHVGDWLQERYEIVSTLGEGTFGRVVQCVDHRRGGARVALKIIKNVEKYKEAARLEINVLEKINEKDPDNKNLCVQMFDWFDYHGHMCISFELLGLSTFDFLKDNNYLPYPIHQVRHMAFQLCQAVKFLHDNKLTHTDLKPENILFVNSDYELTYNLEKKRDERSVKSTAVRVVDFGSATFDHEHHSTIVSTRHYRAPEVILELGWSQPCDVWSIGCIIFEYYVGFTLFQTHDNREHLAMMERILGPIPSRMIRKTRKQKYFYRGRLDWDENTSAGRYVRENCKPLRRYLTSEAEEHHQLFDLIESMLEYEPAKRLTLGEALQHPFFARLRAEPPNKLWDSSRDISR
# hCSNK1E = biological target: T4, hCSNK1E (Homo sapiens, UniProt P49674); assay: KINOMEscan; format: binding
# T4 construct: purchased DiscoverX (KINOMEscan platform)
# hCSNK1G1 = biological target: T5, hCSNK1G1 (Homo sapiens, UniProt Q9HCP0); assay: KINOMEscan; format: binding
# T5 construct: purchased DiscoverX (KINOMEscan platform)
# hCTK = biological target: T6, hCTK (Homo sapiens, UniProt P42679); assay: KINOMEscan; format: binding
# T6 construct: purchased DiscoverX (KINOMEscan platform)
# hEGFR(L747-T751del,Sins) = hEGFR(L747-T751del,Sins) (Homo sapiens, UniProt P00533, DEL747-751/INS746S); assay: KINOMEscan; format: binding
# hEGFR(L858R,T790M) = biological target: T7, hEGFR(L858R,T790M) (Homo sapiens, UniProt P00533, L858R/T790M); assay: KINOMEscan; format: binding
# T7 construct: purchased DiscoverX
# hEPHA1 = biological target: T8, hEPHA1 (Homo sapiens, UniProt P21709); assay: KINOMEscan; format: binding
# T8 construct: purchased DiscoverX
# hEPHA2 = biological target: T9, hEPHA2 (Homo sapiens, UniProt P29317); assay: KINOMEscan; format: binding
# T9 construct: purchased DiscoverX
# T9 sequence (P29317 24-976): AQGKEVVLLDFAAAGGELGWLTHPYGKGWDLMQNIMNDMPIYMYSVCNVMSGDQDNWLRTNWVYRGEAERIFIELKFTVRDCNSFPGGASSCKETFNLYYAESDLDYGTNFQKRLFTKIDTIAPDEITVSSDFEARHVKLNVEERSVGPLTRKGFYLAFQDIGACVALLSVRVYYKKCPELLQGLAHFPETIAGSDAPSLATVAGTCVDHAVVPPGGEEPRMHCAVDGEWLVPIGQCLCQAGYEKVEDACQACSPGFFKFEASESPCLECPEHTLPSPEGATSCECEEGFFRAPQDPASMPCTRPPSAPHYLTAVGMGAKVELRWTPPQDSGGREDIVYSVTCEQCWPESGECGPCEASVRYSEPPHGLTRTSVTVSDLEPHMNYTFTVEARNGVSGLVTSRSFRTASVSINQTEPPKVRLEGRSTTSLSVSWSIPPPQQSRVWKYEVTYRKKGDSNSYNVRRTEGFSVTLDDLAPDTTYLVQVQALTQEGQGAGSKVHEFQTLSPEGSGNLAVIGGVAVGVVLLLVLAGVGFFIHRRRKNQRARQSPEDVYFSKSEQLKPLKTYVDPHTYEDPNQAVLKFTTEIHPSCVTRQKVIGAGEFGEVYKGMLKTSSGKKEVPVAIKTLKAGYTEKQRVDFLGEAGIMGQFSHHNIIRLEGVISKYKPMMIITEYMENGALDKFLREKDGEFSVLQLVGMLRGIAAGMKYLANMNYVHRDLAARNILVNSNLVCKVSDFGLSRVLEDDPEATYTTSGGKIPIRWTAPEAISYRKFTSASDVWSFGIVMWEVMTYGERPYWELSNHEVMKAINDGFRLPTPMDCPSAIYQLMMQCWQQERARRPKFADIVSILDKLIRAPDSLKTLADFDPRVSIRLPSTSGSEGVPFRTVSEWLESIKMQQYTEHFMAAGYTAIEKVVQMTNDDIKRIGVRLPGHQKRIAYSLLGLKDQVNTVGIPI
# hEPHA3 = biological target: T10, hEPHA3 (Homo sapiens, UniProt P29320); assay: KINOMEscan; format: binding
# T10 construct: purchased DiscoverX
# T10 sequence (P29320 21-983): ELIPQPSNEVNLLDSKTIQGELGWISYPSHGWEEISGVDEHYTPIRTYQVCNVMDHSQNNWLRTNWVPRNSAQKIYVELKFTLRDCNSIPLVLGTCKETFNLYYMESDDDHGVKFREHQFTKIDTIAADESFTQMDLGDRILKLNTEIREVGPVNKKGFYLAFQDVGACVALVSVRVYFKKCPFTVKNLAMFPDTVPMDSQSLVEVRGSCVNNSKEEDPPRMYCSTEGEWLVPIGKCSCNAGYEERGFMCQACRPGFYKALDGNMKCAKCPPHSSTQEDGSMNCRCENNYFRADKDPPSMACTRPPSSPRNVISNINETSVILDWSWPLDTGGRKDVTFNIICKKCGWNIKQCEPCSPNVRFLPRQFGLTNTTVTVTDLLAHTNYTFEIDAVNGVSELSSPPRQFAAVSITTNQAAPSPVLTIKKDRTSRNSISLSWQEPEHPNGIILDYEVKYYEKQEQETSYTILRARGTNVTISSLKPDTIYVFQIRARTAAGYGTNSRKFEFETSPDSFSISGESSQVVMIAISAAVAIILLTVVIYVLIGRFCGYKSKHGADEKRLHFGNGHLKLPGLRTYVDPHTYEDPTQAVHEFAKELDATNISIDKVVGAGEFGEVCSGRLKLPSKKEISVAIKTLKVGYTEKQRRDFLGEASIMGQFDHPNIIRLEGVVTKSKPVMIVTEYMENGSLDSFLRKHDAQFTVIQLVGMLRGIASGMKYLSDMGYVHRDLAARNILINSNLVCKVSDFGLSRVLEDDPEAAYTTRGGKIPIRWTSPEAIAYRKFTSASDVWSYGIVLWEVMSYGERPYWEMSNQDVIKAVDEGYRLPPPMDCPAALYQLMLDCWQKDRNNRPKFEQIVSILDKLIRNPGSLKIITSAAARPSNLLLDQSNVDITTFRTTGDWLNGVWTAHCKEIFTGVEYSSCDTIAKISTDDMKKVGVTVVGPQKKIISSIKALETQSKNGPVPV
# hFER = biological target: T11, hFER (Homo sapiens, UniProt P16591); assay: KINOMEscan; format: binding
# T11 construct: purchased DiscoverX
# hFGR = biological target: T12, hFGR (Homo sapiens, UniProt P09769); assay: KINOMEscan; format: binding
# T12 construct: purchased DiscoverX
# hFLT3 = biological target: T13, hFLT3 (Homo sapiens, UniProt P36888); assay: KINOMEscan; format: binding
# T13 construct: purchased DiscoverX
# hFLT3(D835Y) = biological target: T14, hFLT3(D835Y) (Homo sapiens, UniProt P36888, D835Y); assay: KINOMEscan; format: binding
# T14 construct: purchased DiscoverX
# hHUNK = biological target: T15, hHUNK (Homo sapiens, UniProt P57058); assay: KINOMEscan; format: binding
# T15 construct: purchased DiscoverX (KINOMEscan panel)
# hJAK3(JH1Dom.-catalytic) = biological target: T16, hJAK3(JH1Dom.-catalytic) (Homo sapiens, UniProt P52333); assay: KINOMEscan; format: binding
# T16 construct: hJAK3(JH1Dom.-catalytic); purchased DiscoverX (KINOMEscan panel)
# hKIT = biological target: T17, hKIT (Homo sapiens, UniProt P10721); assay: KINOMEscan; format: binding
# T17 construct: purchased DiscoverX (KINOMEscan panel)
# hMAP3K1 = biological target: T18, hMAP3K1 (Homo sapiens, UniProt Q13233); assay: KINOMEscan; format: binding
# T18 construct: purchased DiscoverX (KINOMEscan platform)
# hMAP3K4 = biological target: T19, hMAP3K4 (Homo sapiens, UniProt Q9Y6R4); assay: KINOMEscan; format: binding
# T19 construct: purchased DiscoverX (KINOMEscan platform)
# hMEK4 = biological target: T20, hMEK4 (Homo sapiens, UniProt P45985); assay: KINOMEscan; format: binding
# T20 construct: purchased DiscoverX
# hMELK = biological target: T21, hMELK (Homo sapiens, UniProt Q14680); assay: KINOMEscan; format: binding
# T21 construct: purchased DiscoverX
# T21 sequence (Q14680 whole entry): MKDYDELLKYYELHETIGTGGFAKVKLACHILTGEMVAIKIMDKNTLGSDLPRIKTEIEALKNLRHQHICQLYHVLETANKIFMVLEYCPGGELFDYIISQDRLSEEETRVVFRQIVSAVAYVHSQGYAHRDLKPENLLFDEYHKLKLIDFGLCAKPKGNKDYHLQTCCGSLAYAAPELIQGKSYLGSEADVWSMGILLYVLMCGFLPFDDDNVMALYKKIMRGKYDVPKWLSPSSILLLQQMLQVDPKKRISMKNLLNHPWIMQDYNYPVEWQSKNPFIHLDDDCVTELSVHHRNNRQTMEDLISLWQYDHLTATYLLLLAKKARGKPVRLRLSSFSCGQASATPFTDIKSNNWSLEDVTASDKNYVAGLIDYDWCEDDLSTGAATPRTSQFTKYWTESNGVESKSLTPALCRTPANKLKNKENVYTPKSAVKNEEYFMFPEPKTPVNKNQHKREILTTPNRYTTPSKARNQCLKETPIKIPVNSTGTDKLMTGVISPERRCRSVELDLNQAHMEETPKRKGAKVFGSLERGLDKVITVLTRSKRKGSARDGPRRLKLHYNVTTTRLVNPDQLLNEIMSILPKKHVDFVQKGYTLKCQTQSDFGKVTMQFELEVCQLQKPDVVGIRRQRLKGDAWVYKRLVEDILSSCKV
# hPIP5K1A = biological target: T22, hPIP5K1A (Homo sapiens, UniProt Q99755); assay: KINOMEscan; format: binding
# T22 construct: purchased DiscoverX
# T22 sequence (Q99755 whole entry): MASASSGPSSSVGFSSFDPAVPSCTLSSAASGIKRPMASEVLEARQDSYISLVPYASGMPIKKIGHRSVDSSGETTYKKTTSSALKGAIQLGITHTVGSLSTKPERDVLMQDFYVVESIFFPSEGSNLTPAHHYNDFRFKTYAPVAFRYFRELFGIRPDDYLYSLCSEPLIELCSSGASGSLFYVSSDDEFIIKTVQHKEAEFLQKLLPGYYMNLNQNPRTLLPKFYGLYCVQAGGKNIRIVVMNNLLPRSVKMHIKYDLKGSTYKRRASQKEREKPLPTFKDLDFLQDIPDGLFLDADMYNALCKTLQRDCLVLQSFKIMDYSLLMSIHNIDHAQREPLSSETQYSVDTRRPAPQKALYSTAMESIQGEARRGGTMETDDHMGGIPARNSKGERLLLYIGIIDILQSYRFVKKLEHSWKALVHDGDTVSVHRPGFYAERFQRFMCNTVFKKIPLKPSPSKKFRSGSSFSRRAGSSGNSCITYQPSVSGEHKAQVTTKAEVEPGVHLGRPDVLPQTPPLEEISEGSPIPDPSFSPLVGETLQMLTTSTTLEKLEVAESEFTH
# hRAF1 = biological target: T23, hRAF1 (Homo sapiens, UniProt P04049); assay: KINOMEscan; format: binding
# T23 construct: purchased DiscoverX (KINOMEscan platform)
# hRIPK1 = biological target: T24, hRIPK1 (Homo sapiens, UniProt Q13546); assay: KINOMEscan; format: binding
# T24 construct: purchased DiscoverX (KINOMEscan platform)
# [1] = biological target: T25, hRPS6KA5(Kin.Dom.1-N-term) (Homo sapiens, UniProt O75582); assay: KINOMEscan; format: binding
# T25 construct: hRPS6KA5(Kin.Dom.1-N-term); purchased DiscoverX (KINOMEscan platform)
# hSGK = biological target: T26, hSGK (Homo sapiens, UniProt O00141); assay: KINOMEscan; format: binding
# T26 construct: purchased DiscoverX (KINOMEscan platform)
# T26 sequence (O00141 whole entry): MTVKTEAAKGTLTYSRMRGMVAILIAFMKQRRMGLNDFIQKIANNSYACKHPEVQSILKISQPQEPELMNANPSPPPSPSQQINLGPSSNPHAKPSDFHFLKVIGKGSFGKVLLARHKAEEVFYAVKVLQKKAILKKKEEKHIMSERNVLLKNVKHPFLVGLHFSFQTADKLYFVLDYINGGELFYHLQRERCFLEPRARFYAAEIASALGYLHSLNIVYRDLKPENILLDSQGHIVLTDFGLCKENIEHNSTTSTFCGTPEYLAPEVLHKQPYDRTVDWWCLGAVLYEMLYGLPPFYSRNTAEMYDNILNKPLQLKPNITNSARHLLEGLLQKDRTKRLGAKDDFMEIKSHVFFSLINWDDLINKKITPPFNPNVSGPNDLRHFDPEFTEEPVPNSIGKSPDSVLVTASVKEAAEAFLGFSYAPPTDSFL
# hSGK3 = biological target: T27, hSGK3 (Homo sapiens, UniProt Q96BR1); assay: KINOMEscan; format: binding
# T27 construct: purchased DiscoverX (KINOMEscan platform)
# hSLK = biological target: T28, hSLK (Homo sapiens, UniProt Q9H2G2); assay: KINOMEscan; format: binding
# T28 construct: purchased DiscoverX (KINOMEscan platform)
# hSTK39 = biological target: T29, hSTK39 (Homo sapiens, UniProt Q9UEW8); assay: KINOMEscan; format: binding
# T29 construct: purchased DiscoverX (KINOMEscan platform)
# hSYK = biological target: T30, hSYK (Homo sapiens, UniProt P43405); assay: KINOMEscan; format: binding
# T30 construct: purchased DiscoverX (KINOMEscan platform)
# hTNK2 = biological target: T31, hTNK2 (Homo sapiens, UniProt Q07912); assay: KINOMEscan; format: binding
# T31 construct: purchased DiscoverX
# hTTK = biological target: T32, hTTK (Homo sapiens, UniProt P33981); assay: KINOMEscan; format: binding
# T32 construct: purchased DiscoverX
# hULK2 = biological target: T33, hULK2 (Homo sapiens, UniProt Q8IYT8); assay: KINOMEscan; format: binding
# T33 construct: purchased DiscoverX
# hYANK1 = biological target: T34, hYANK1 (Homo sapiens, UniProt Q8WU08); assay: KINOMEscan; format: binding
# T34 construct: purchased DiscoverX
# hPPARα = biological target: T35, hPPARα (Homo sapiens, UniProt Q07869); assay: Nuclear hormone receptor assay (Eurofins-CEREP); conditions: read-out: Relative IC50
# T35 construct: Eurofins-CEREP
# hPPARγ = biological target: T36, hPPARγ (Homo sapiens, UniProt P37231); assay: Nuclear hormone receptor assay (Eurofins-CEREP); conditions: read-out: Relative IC50
# T36 construct: Eurofins-CEREP
# hOPRm1 = hOPRm1 (Homo sapiens, UniProt P35372); assay: cAMP Potentiation (Eurofins-CEREP); conditions: @ 1 μM
# h5HT2B = h5HT2B (Homo sapiens, UniProt P41595); assay: Calcium Mobilization Agonist (Eurofins-CEREP); conditions: @ 13.3 μM
# h5HT2B, sequence (P41595 whole entry): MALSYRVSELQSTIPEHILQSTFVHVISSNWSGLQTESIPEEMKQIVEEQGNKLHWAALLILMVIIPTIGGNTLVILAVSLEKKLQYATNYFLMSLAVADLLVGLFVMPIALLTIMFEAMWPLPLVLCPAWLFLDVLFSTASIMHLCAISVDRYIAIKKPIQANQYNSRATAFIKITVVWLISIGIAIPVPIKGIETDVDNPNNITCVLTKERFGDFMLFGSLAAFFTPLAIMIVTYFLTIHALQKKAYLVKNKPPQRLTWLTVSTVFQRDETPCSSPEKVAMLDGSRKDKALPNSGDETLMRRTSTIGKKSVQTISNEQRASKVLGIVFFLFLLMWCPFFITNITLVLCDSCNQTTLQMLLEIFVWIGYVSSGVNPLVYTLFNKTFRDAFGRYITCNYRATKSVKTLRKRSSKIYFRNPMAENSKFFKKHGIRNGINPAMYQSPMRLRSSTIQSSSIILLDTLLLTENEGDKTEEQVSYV
# hM3 = hM3 (Homo sapiens, UniProt P20309); assay: Calcium Mobilization Potentiation (Eurofins-CEREP); conditions: @ 10 μM
# T1 sequence (Q9Y243 whole entry): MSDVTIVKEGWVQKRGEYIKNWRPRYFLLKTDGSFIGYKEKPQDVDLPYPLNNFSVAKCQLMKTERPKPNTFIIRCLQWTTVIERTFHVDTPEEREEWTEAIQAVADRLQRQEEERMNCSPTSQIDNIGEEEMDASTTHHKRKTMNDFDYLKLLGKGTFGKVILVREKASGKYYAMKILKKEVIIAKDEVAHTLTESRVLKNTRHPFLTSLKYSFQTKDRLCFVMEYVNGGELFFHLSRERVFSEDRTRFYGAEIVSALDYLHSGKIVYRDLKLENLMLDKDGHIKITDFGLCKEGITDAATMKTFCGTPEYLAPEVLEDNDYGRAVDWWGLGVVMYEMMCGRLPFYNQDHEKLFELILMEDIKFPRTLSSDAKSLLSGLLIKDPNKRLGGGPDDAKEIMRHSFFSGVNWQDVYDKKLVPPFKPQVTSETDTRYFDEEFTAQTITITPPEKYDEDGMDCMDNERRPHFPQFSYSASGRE
smiles,measurement,setting,value
"Cc1cn(CCN2CCN(c3ccccc3-c3cc(C#N)cc(C(=O)NCCCN4CCCC4)c3)CC2)c2ccccc12 [LLY-507, 3-cyano-5-{2-[4-[2-(3-methylindol-1-yl)ethyl]piperazin-1-yl]-phenyl}-N-[(3-pyrrolidin-1-yl)propyl]benzamide]",pIC50,hAKT3,< 4.70
same,pIC50,hALK(C1156Y),< 4.70
same,pIC50,hCLK2,< 4.70
same,pIC50,hCSNK1E,< 4.70
same,pIC50,hCSNK1G1,< 4.70
same,pIC50,hCTK,< 4.70
same,pIC50,"hEGFR(L747-T751del,Sins)",< 4.70
same,pIC50,"hEGFR(L858R,T790M)",< 4.70
same,pIC50,hEPHA1,< 4.70
same,pIC50,hEPHA2,< 4.70
same,pIC50,hEPHA3,< 4.70
same,pIC50,hFER,< 4.70
same,pIC50,hFGR,< 4.70
same,pIC50,hFLT3,< 4.70
same,pIC50,hFLT3(D835Y),< 4.70
same,pIC50,hHUNK,< 4.70
same,pIC50,hJAK3(JH1Dom.-catalytic),< 4.70
same,pIC50,hKIT,< 4.70
same,pIC50,hMAP3K1,< 4.70
same,pIC50,hMAP3K4,< 4.70
same,pIC50,hMEK4,< 4.70
same,pIC50,hMELK,< 4.70
same,pIC50,hPIP5K1A,4.79
same,pIC50,hRAF1,< 4.70
same,pIC50,hRIPK1,< 4.70
same,pIC50,[1],< 4.70
same,pIC50,hSGK,< 4.70
same,pIC50,hSGK3,< 4.70
same,pIC50,hSLK,< 4.70
same,pIC50,hSTK39,< 4.70
same,pIC50,hSYK,< 4.70
same,pIC50,hTNK2,< 4.70
same,pIC50,hTTK,< 4.70
same,pIC50,hULK2,< 4.70
same,pIC50,hYANK1,< 4.70
same,pIC50,hPPARα,< 5.00
same,pIC50,hPPARγ,< 5.00
same,"% Effect, Potentiation",hOPRm1,9.6%
same,"% Effect, Stimulation",h5HT2B,3.4%
same,"% Effect, Potentiation",hM3,-18%
